Key:
Experiment in all cases: relative viability (nuclei count vs DMSO), 5 days (fraction); higher = more cells survive
Sulindac + Palbociclib = compound: CC1=C(CC(=O)O)c2cc(F)ccc2/C1=C\c1ccc([S+](C)[O-])cc1 [Sulindac] + CC(=O)c1c(C)c2cnc(Nc3ccc(N4CCNCC4)cn3)nc2n(C2CCCC2)c1=O [Palbociclib] (partner 0.5 µM)
Outline: (§1)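 Values are medians from duplicate plates. Each reflects relative viability, defined as the nuclei count of treated wells over that of vehicle wells. Lung cancer cell lines in 1536-well plates were pin-tool dosed one day after seeding with one drug alone or with a fixed anchor-drug dose plus five library-drug doses (not always all listed) in √10 steps, then fixed, stained and imaged at 4× after 5 days.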

[1] = compound: CN[C@@H]1C[C@H]2O[C@@](C)([C@@H]1OC)n1c3ccccc3c3c4c(c5c6ccccc6n2c5c31)C(=O)NC4 [Staurosporine] + CC(C)C[C@H](NC(=O)[C@H](Cc1ccccc1)NC(=O)c1cnccn1)B(O)O [Bortezomib] (partner 0.002 µM)
Outline: as §1

[2] = compound: CN[C@@H]1C[C@H]2O[C@@](C)([C@@H]1OC)n1c3ccccc3c3c4c(c5c6ccccc6n2c5c31)C(=O)NC4 [Staurosporine] + COc1cc2c(Oc3ccc(NC(=O)C4(C(=O)Nc5ccc(F)cc5)CC4)cc3F)ccnc2cc1OCCCN1CCOCC1 [Foretinib] (partner 0.25 µM)
Outline: as §1

[3] = compound: CN[C@@H]1C[C@H]2O[C@@](C)([C@@H]1OC)n1c3ccccc3c3c4c(c5c6ccccc6n2c5c31)C(=O)NC4 [Staurosporine] + CS(=O)(=O)CCNCc1ccc(-c2ccc3ncnc(Nc4ccc(OCc5cccc(F)c5)c(Cl)c4)c3c2)o1 [Lapatinib] (partner 2 µM)
Outline: as §1

| Cell Line | relative viability (Sulindac + Palbociclib; first compound 0.08 µM) | relative viability (Sulindac + Palbociclib; first compound 0.253 µM) | relative viability (Sulindac + Palbociclib; first compound 0.8 µM) | relative viability (Sulindac + Palbociclib; first compound 2.53 µM) | relative viability (Sulindac + Palbociclib; first compound 8 µM) | relative viability ([1]; first compound 0.005 µM) | relative viability ([1]; first compound 0.01581 µM) | relative viability ([1]; first compound 0.05 µM) | relative viability ([1]; first compound 0.1581 µM) | relative viability ([1]; first compound 0.5 µM) | relative viability ([2]; first compound 0.005 µM) | relative viability ([2]; first compound 0.01581 µM) | relative viability ([2]; first compound 0.05 µM) | relative viability ([2]; first compound 0.1581 µM) | relative viability ([2]; first compound 0.5 µM) | relative viability ([3]; first compound 0.005 µM) | relative viability ([3]; first compound 0.01581 µM) | relative viability ([3]; first compound 0.05 µM) | relative viability ([3]; first compound 0.1581 µM) | relative viability ([3]; first compound 0.5 µM) |
| --- | --- | --- | --- | --- | --- | --- | --- | --- | --- | --- | --- | --- | --- | --- | --- | --- | --- | --- | --- | --- |
| NCI-H460 | 0.199 | 0.176 | 0.147 | 0.239 | 0.148 | 1.08 | 0.733 | 0.463 | 0.0074 | 0.0085 | 0.972 | 0.85 | 0.755 | 0.161 | 0.013 | 1.08 | 0.389 | 0.455 | 0.0071 | 0.0093 |
| NCI-H520 | 0.231 | 0.239 | 0.221 | 0.244 | 0.278 | 0.716 | 0.128 | 0.307 | 0.207 | 0.117 | 0.692 | 0.759 | 0.548 | 0.409 | 0.18 | 0.935 | 0.595 | 0.514 | 0.178 | 0.13 |
| NCI-H647 | 0.462 | 0.469 | 0.339 | 0.431 | 0.439 | 0.532 | 0.164 | 0.285 | 0.0743 | 0.0533 | 0.886 | 0.709 | 0.535 | 0.143 | 0.0766 | 0.603 | 0.262 | 0.253 | 0.0661 | 0.0597 |
| NCI-H650 | 0.313 | 0.347 | 0.32 | 0.28 | 0.402 | 0.504 | 0.283 | 0.315 | 0.212 | 0.206 | 0.687 | 0.273 | 0.257 | 0.289 | 0.256 | 0.503 | 0.393 | 0.286 | 0.245 | 0.184 |
| NCI-H661 | 0.405 | 0.433 | 0.458 | 0.376 | 0.449 | 0.716 | 0.453 | 0.341 | 0.275 | 0.228 | 1.13 | 0.571 | 0.481 | 0.27 | 0.216 | 0.472 | 0.395 | 0.266 | 0.235 | 0.236 |
| NCI-H727 | 0.621 | 0.643 | 0.566 | 0.627 | 0.667 | 0.703 | 0.354 | 0.345 | 0.352 | 0.158 | 0.652 | 0.542 | 0.428 | 0.37 | 0.29 | 0.666 | 0.324 | 0.307 | 0.388 | 0.181 |
| NCI-H838 | 0.262 | 0.234 | 0.195 | 0.226 | 0.223 | 0.289 | 0.0982 | 0.133 | 0.15 | 0.0919 | 0.51 | 0.228 | 0.208 | 0.185 | 0.0995 | 0.25 | 0.164 | 0.211 | 0.134 | 0.103 |
| NCI-H1355 | 0.335 | 0.43 | 0.327 | 0.395 | 0.379 | 1.09 | 0.693 | 0.259 | 0.202 | 0.209 | 0.963 | 0.415 | 0.468 | 0.221 | 0.221 | 0.96 | 0.557 | 0.272 | 0.188 | 0.193 |

Source: the supplement of paper PMC10307832
